In patent US20260035479A1, “GD2 BI-SPECIFIC INVARIANT NATURAL KILLER T CELL ENGAGERS AND METHODS OF USE THEREOF” (The Children's Hospital of Philadelphia, priority 2022, published 2026):

Tests used:
[1] = system: patients with advanced solid tumors; details: Giaccone et al., 2002; cited from earlier work
iNKTs = details: Parekh, 2005; cited from earlier work
EL4 lymphoma cells = test: 51Cr-release killing assay of EL4 lymphoma cells with murine hepatic lymphocytes or sorted iNKTs; type: cell-based; details: for percent specific lysis relative to control: sorted murine iNKTs as effectors, p=0.014 C34 vs control; for percent specific lysis in comparison with control: unsorted hepatic lymphocytes as effectors, 100 ng/mL glycolipid antigen, p=0.0133 C34 vs nothing added
Description: FIGS. 9A-9B: iNKT-mediated cytotoxicity with glycolipid antigen (GAg) stimulation. (FIG. 9A) C57BL/6 hepatic lymphocytes (effectors) were co-cultured for 18 hours with ^51Cr-loaded EL4 lymphoma cells (targets) in triplicates at E:T ratios of 2.5:1, 5:1,10:1, 20:1, and 40:1; these cocultures were stimulated with either alpha galactosyl-ceramide (a-GalCer) or C34 at indicated concentrations or left unstimulated (Nothing added). (FIG. 9B) Similar experiments were performed with flow cytometrically sorted murine hepatic iNKTs as effector populations.
^51Cr Killing Assays. EL4 lymphoma cells were used as targets and were labeled with ^51Cr (Perkin-Elmer) at a ratio of 1 μCi per 1×10^6 cells at 37° C. for 1 hour; excess ^51Cr was removed by extensive washing in RPMI media as described previously (Orange et al., 2022). Murine hepatic iNKT-enriched cell populations and flow cytometrically sorted iNKTs were plated in 96-well round-bottom wells. 2×10^5 target cells were then mixed with these iNKTs in each well at designated effector to target ratios with 100 ng/mL of glycolipid antigen in triplicate. After 16 hours, supernatants from each well were transferred to a Deepwell Lumiplate (Perkin Elmer), dried overnight, and then analyzed by a TopCount gamma radiation detector (Perkin Elmer). Spontaneous release was determined by collecting supernatants from cultures of targets alone, while maximum lysis was measured from the supernatants of target cells that were fully lysed with detergent. Percent specific lysis was calculated by the equation: 100× (sample lysis cpm-spontaneously released cpm)/(maximum cpm-spontaneously released cpm), as described previously (Orange et al., 2022).
^51Cr-release killing assays: Percent specific lysis was calculated as described above and triplicate values were analyzed using Graphpad (Prism). Mean values and standard errors of the mean were calculated. Percent specific lysis among the three groups were compared using one-way ANOVA. Significance was set at p value of <0.05.

hepatic iNKTs = test: Glycolipid antigen-iNKT stimulation in mice, hepatic iNKT cytokine expression by flow cytometry; type: in vivo, C57BL/6 mice; details: for IFN-γ MFI relative to PBS: n=2; for iNKT expression of intracellular IL-4 vs PBS / iNKT expression of surface CD107a vs PBS / expression of IFN-γ in iNKTs: acute stimulation, 4 μg intraperitoneal; for expression of IFN-γ in iNKTs: livers harvested at hour 4, PBS control 10.1%
Description: FIG. 7: iNKT Response to Glycolipid Antigen Stimulation. Two C57BL/6 mice per group were injected with phosphate-buffered saline (PBS), alpha-galactosyl ceramide (a-GalCer), or C34 at hour 0. At hour 4, mice were euthanized, their livers were excised and hepatic lymphocytes isolated and stained for NK1.1+ TCR-β+ mononuclear single cells, and intracellular IFN-γ was assayed by flow cytometry. The IFN-γ positive gate was drawn based on unstained controls. Representative data shown are from one mouse.
FIGS. 8A-8C: Acute and Chronic cytokine expression following GAg-stimulation of iNKTs. Two C57BL/6 mice per group were injected with 4 μg of C34, alpha galactosyl-ceramide (aGC), or Phosphate-Buffered Saline (PBS), in acute or chronic stimulation groups. Hepatic lymphocytes were then isolated and stained for NK1.1, TCR-β, and interferon-gamma (IFN-γ) with intra- and extracellular staining methods. (FIG. 8A) IFN-γ mean fluorescence intensity (MFI) of iNKTs. (FIG. 8B) CD107a MFI of iNKTs. (FIG. 8C) Interleukin-4 MFI of iNKTs.
Glycolipid antigen-iNKT stimulation experiments. C57/BL6 mice were injected with free glycolipid antigen or phosphate-buffered saline (PBS) intraperitoneally at a dose of 4 μg per injection in “acute” and “chronic” exposure situations. In acute stimulation conditions, intraperitoneal injections were given at hour 0, then at hour 4 mice were sacrificed and livers harvested and processed as above. In chronic stimulation conditions, animals received the 4 μg dose of glycolipid antigen days 0, 4, and 7. Livers were then harvested 4 hours after the final intraperitoneal injection and processed as described above. Hepatic mononuclear cells were extracellularly stained with fluorophore-labeled loaded-CD1d tetramer, anti-NK1.1, anti-CD107a, and then fixed and stained intracellularly with anti-IFN-Y, anti-IL-4, anti-TCR-β using a Fixation/Permeabilization kit (BD) and analyzed on FACSVerse flow cytometer (BD).
Data Analysis. Cytokinc expression analysis: FCS files were analyzed using Flowjo (TreeStar) software. Mean fluorescence intensity (MFI) of IFN-γ CD107a, and IL-4 on iNKT cells was compared between PBS, aGC, and C34-stimulated groups using Graphpad (Prism) and compared using Student's t-test between two Groups (ex: PBS vs aGC), and one-way ANOVA for comparison of PBS, aGC, and C34.

[2] = acute stimulation protocol, p=0.012 aGC vs PBS, p=0.0034 C34 vs PBS
[3] = chronic stimulation protocol, three intraperitoneal injections over 7 days, p=0.0010 for C34

## CCCCCCCCCCCCCCCCCCCCCCCCCC(=O)N[C@@H](CO[C@H]1O[C@H](CO)[C@H](O)[C@H](O)[C@H]1O)[C@H](O)[C@H](O)CCCCCCCCCCCCCC [aGC, α-GalactosylCeramide]
[1]
  disease response: without disease response
  dose-limiting toxicities: no dose-limiting toxicities
  patients with increased serum GM-CSF and TNF-α: 5 of 24
iNKTs
  duration of iNKT anergy following stimulation: up to 6 months
EL4 lymphoma cells
  percent specific lysis relative to control: greater
  percent specific lysis in comparison with control: higher
Hepatic iNKTs; [2]
  IFN-γ MFI relative to PBS: increased
Hepatic iNKTs
  iNKT expression of intracellular IL-4 vs PBS: No significant differences
  iNKT expression of surface CD107a vs PBS: No significant differences
  expression of IFN-γ in iNKTs: 30.4 % of iNKTs
Hepatic iNKTs; [3]
  IFN-γ MFI relative to PBS: no difference

## phenyl α-GalactosylCeramide [C34]
EL4 lymphoma cells
  percent specific lysis relative to control: greater
  percent specific lysis in comparison with control: higher
Hepatic iNKTs; [2]
  IFN-γ MFI relative to PBS: increased
Hepatic iNKTs
  iNKT expression of intracellular IL-4 vs PBS: No significant differences
  iNKT expression of surface CD107a vs PBS: No significant differences
  expression of IFN-γ in iNKTs: 71.4 % of iNKTs
Hepatic iNKTs; [3]
  IFN-γ MFI relative to PBS: greater
Hepatic iNKTs; chronic versus acute stimulation with the same glycolipid
  IFN-γ MFI, chronic vs acute group: not a significant difference
